In patent US20240084258A1, “METHOD FOR PREPARING BROWN ADIPOCYTE” (KYOTO PREFECTURAL PUBLIC UNIVERSITY CORPORATION, priority 2015, published 2024):
Read-outs that look alike come from different tables or passages of the source.

How the values were obtained:
[1] = test system: human dermal fibroblasts (HDFs)
Procedure: (§1) Human normal skin-derived fibroblast (human dermal fibroblasts; HDFs) were suspended in a normal medium (10% FBS-added Dulbecco's modified minimum essential medium; DMEM). This was seeded in a 12-well plate at a concentration of 3×10^4 cells/well and culturing was started at 5% CO2/95% humidified air, 37° C. The next day (day 0), the culture supernatant was removed by suction and a normal medium (group 1), an adipocyte induction medium (group 2), or an adipocyte induction medium (groups 3-8) added with ALK5 inhibitor II at concentration of 4 μM was added at 1 mL/well.
The adipocyte induction medium is DMEM added with 1 nM T3, 1 μM Rosiglitazone, 0.5 mM isobutylmethylxanthine (IBMX), 0.5 μM dexamethason, 1 μg/mL Insulin and 10% FBS.
Once every 2 days, the medium was substituted by a fresh one. In groups 3-7, the cells were cultured in an adipocyte induction medium added with ALK5 inhibitor II only in the periods of Days 0-2, Days 0-4, Days 0-6, Days 0-8 and Days 0-10, respectively, and thereafter cultured in an adipocyte induction medium without addition of ALK5 inhibitor II. In group 8, the cells were cultured in an adipocyte induction medium added with ALK5 inhibitor II throughout the whole period of Days 0-14. On day 14, the medium was removed from each well by suction, the cells were washed with PBS(−) and total RNA was extracted from the cells by using RNA easy Mini Kit manufactured by Qiagen. cDNA was synthesized from the RNA by using Rever Tra Ace qPCR RT Master Mix. The cDNA was admixed with Real-time PCR Master Mix, primers specific to UCP1 gene or β actin gene and Taqman probe. qRT-PCR was performed using AB7300 Real-time PCR system. The mRNA level of UCP1 gene was quantified as a ratio to β actin gene mRNA and calculated with the value of fibroblast cultured in the normal medium as 1.

[2] = test system: human dermal fibroblasts (HDFs); test: UCP1, CIDEA and KCNK3 gene mRNA by real time RT-PCR (Example 17); type: cell-based
Procedure: (Day −1). In the control (Ctrl) group, the culture supernatant of the next day (Day 0) was removed by suction and the cells were cultured in a normal medium up to day 14 while substituting the medium with a fresh one once every other day. In groups other than the control (Ctrl) group, the culture supernatant was removed by suction on day 0, and an adipocyte induction medium added with any of ALK5 inhibitor II (4 μM) and LY2157299 (8 μM) was added at 1 mL/well.
Thereafter, the cells were cultured in an adipocyte induction medium free of any compound of ALK5 inhibitor II and LY215799 during Day 9-Day 14. On day 14, the medium was removed by suction from the wells of all groups, and the cells were washed with PBS(−).

[3] = test system: human dermal fibroblasts (HDFs); remark: listed apart in the source
Procedure: as §1
Once every 2 days, the medium was substituted by a fresh one. In groups 3-7, the cells were cultured in an adipocyte induction medium added with ALK5 inhibitor II only in the periods of Days 0-2, Days 0-4, Days 0-6, Days 0-8 and Days 0-10, respectively, and thereafter cultured in an adipocyte induction medium without addition of ALK5 inhibitor II. In group 8, the cells were cultured in an adipocyte induction medium added with ALK5 inhibitor II throughout the whole period of Days 0-14.

[4] = test system: human dermal fibroblasts (HDFs); test: UCP1 gene mRNA by real time RT-PCR (Example 2); type: cell-based; conditions: induction medium + T3 + Rosiglitazone, D4476 2 μM, FSK 2 μM, PD0325901 1 μM, SB431542 2 μM, day 14, FIG. 2
Procedure: This was seeded in a 24-well plate at a concentration of 1×10^4 cells/well (day 0), and culturing was started at 5% CO2/95% humid air, 37° C. The next day, the culture supernatant was removed by suction and, as described in the Figure, a normal medium, an adipocyte induction medium, or an adipocyte induction medium added with each low-molecular compound and the like was added at 500 μL/well. […] The concentrations of the additives are as follows: • T3: 1 nM • Rosiglitazone: 1 μM • D4476: 2 μM • Pifithrin alpha [p53 inhibitor]: 5 μM • Forskolin (FSK): 2 μM • PD0325901: 1 μM • SB431542: 2 μM. The culture medium was substituted by a fresh one every 3-4 days and the cells were cultured up to day 14.

[5] = test system: human dermal fibroblasts (HDFs); test: BODIPY, UCP1 and DAPI co-staining (Example 10); type: cell-based; conditions: D4476 2 μM in addition to T3 and Rosiglitazone, day 14, FIG. 10A, 10B
Procedure: The next day, the culture supernatant was removed by suction and, as described in the Figure, a normal medium, an adipocyte induction medium, or an adipocyte induction medium added with each low-molecular-weight compound and the like was added at 500 μL/well.
The adipocyte induction medium is a 10% FBS-added DMEM+MDI medium (10% FBS-added DMEM supplemented with 0.5 mM isobutylmethylxanthine (IBMX), 0.5 μM dexamethason and 1 μg/mL Insulin).
The concentrations of the additives are as follows: • T3: 1 nM • Rosiglitazone: 1 μM • D4476: 2 μM.
The culture medium was substituted by a fresh one every 3-4 days and the cells were cultured up to day 14.
The cells were fixed with 4% para-formaldehyde and washed with PBS(−).
Then, the cells were reacted in BODIPY 493/503 (Invitrogen)/PBS solution at room temperature for 5 min, washed 3 times with PBS and stained with DAPI. The cells were photographed at a magnification of 200 with a fluorescence microscope.

[6] = test system: human dermal fibroblasts (HDFs); test: UCP1 mRNA response of induced cells to Isoproterenol or FSK stimulation (Example 3); type: cell-based; conditions: cells cultured 14 days in induction medium with D4476 in addition to T3 and Rosiglitazone; FIG. 3
Procedure: 10 μM Isoproterenol or FSK was added to these cells as described in the Figure. As a control, a group free of the addition was also prepared. After 5 hr, the culture medium was removed from each well by suction, the cells were washed with PBS(−) and total RNA was extracted from the cells with ISOGEN II. qRT-PCR was performed in the same manner as in Example 2. The mRNA level of UCP1 gene was quantified as a ratio to […] gene mRNA and calculated with the value of fibroblast cultured in the normal medium as 1.

[7] = ALK5 inhibitor II 4 μM or LY2157299 8 μM up to Day 9, day 14, FIG. 17

Cc1cccc(-c2n[nH]cc2-c2ccc3ncccc3n2)n1 [ALK5 Inhibitor II, 2-(3-(6-Methylpyridin-2-yl)-1H-pyrazol-4-yl)-1,5-naphthyridine]
UCP1 gene expression (conversion to brown adipocytes) ([1]; HDFs, ALK5 inhibitor II 4 μM in adipocyte induction medium, day 14, FIG. 13): converted to brown adipocytes strongly expressing UCP1 gene
UCP1 gene expression ([1]; group 6: ALK5 inhibitor II 4 μM for days 0-8, then 6 days without it): the highest expression of UCP1 gene was induced
UCP1 gene expression ([1]; groups 3-5, 7, 8: ALK5 inhibitor II 4 μM for Days 0-2, 0-4, 0-6, 0-10 or 0-14): High expression of UCP1 gene was also induced
CIDEA gene expression [2, 7]: induced into brown adipocytes expressing UCP1 gene, CIDEA gene and KCNK3 gene
KCNK3 gene expression [2, 7]: induced into brown adipocytes expressing UCP1 gene, CIDEA gene and KCNK3 gene
UCP1 gene expression [2, 7]: induced into brown adipocytes expressing UCP1 gene, CIDEA gene and KCNK3 gene
strength of induction of UCP1 gene expression, compared with LY2157299 ([2]; ALK5 inhibitor II 4 μM versus LY2157299 8 μM, day 14): more strongly induced
staining intensity of UCP1 protein and staining positive cells ([3]; #6: ALK5 inhibitor II 4 μM for days 0-8, then 6 days without it): the staining intensity of UCP1 protein was high and many staining positive cells were present
UCP1 protein expression by immunostaining (conversion to brown adipocytes) ([3]; HDFs, ALK5 inhibitor II 4 μM in adipocyte induction medium, day 14, FIG. 14A, 14B): converted to brown adipocytes highly expressing UCP1 protein
UCP1 protein expression ([3]; other conditions cultured in the presence of ALK5 inhibitor II (in FIG. #2-5, 7, 8)): High expression of UCP1 protein was also detected

NC(=O)c1ccc(-c2nc(-c3ccc4c(c3)OCCO4)c(-c3ccccn3)[nH]2)cc1 [D4476, 4-[4-(2,3-dihydro-1,4-benzodioxin-6-yl)-5-(2-pyridlnyl-)1H-imidazol-2-yl]-benzamide]
mRNA expression of UCP1 gene (conversion to brown adipocytes) [4]: induced to brown adipocytes that express mRNA of UCP1 gene
lipid droplets stained with Bodipy and UCP1 protein [5]: converted to brown adipocytes expressing lipid droplets stained with Bodipy and UCP1 protein
responsiveness of induced cells to Isoproterenol or FSK stimuli [6]: brown adipocyte-like responsiveness
